Measured values taken from patent US20200277246A1, “TREATMENT METHOD, COMPOUNDS, AND METHOD OF INCREASING TRPV2 ACTIVITY” (THE FEINSTEIN INSTITUTE FOR MEDICAL RESEARCH, priority 2015, published 2020).
Where “and” joins values, the source holds several entries; their conditions need not be identical. Identical values can stand only once. Entries after “also recorded” stand apart in the source; their conditions may differ.

Key:
[1] = tested on: FLS from a C57BL/6 mouse with KRN serum-induced arthritis; experiment: Matrigel transwell invasion assay, mouse FLS; type: cell-based; settings: 10 μM, one cell line in triplicate
Protocol: The in vitro invasiveness of FLS was assayed in a transwell system using Matrigel-coated inserts (BD Biosciences, Franklin Lakes, N.J.), as previously described (Tolboom et al., “Invasiveness of Fibroblast-Like Synoviocytes is an Individual Patient Characteristic Associated with the Rate of Joint Destruction in Patients with Rheumatoid Arthritis,” Arthritis Rheum. 52 (7):1999-2002 (2005); Laragione et al., “The Arthritis Severity Locus Cia5d is a Novel Genetic Regulator of the Invasive Properties of Synovial Fibroblasts,” Arthritis Rheum. 58 (8):2296-2306 (2008), which are hereby incorporated by reference in their entirety). Briefly, 70-80% confluent cells were harvested by trypsin-EDTA digestion, and re-suspended at 2.0×10^4 cells in 500 μl of serum-free DMEM. Cells were placed in the upper compartment of the Matrigel-coated inserts. Where indicated, O1821, LER13, or vehicle was added to the upper chamber. The lower compartment was filled with complete media and the plates were incubated at 37° C. for 24 hours. After 24 hours the upper surface of the insert was wiped with cotton-swabs to remove non-invading cells and the Matrigel layer. The opposite side of the insert was stained with Crystal Violet (Sigma) and the total number of cells that invaded through Matrigel counted at 100× magnification. […]

[2] = tested on: FLS from DA rats with PIA; experiment: Matrigel transwell invasion assay, FLS from DA rats with PIA (incl. siRNA knock-down); type: cell-based, rat; settings: for Reduction of FLS invasion: DA cells, overnight
Protocol: The in vitro invasiveness of FLS was assayed in a transwell system using Matrigel-coated inserts (BD Biosciences, Franklin Lakes, N.J.), as previously described (Tolboom et al., “Invasiveness of Fibroblast-Like Synoviocytes is an Individual Patient Characteristic Associated with the Rate of Joint Destruction in Patients with Rheumatoid Arthritis,” Arthritis Rheum. 52 (7):1999-2002 (2005); Laragione et al., “The Arthritis Severity Locus Cia5d is a Novel Genetic Regulator of the Invasive Properties of Synovial Fibroblasts,” Arthritis Rheum. 58 (8):2296-2306 (2008), which are hereby incorporated by reference in their entirety). Briefly, 70-80% confluent cells were harvested by trypsin-EDTA digestion, and re-suspended at 2.0×10^4 cells in 500 μl of serum-free DMEM. Cells were placed in the upper compartment of the Matrigel-coated inserts. Where indicated, O1821, LER13, or vehicle was added to the upper chamber. The lower compartment was filled with complete media and the plates were incubated at 37° C. for 24 hours. After 24 hours the upper surface of the insert was wiped with cotton-swabs to remove non-invading cells and the Matrigel layer. The opposite side of the insert was stained with Crystal Violet (Sigma) and the total number of cells that invaded through Matrigel counted at 100× magnification. Experiments were done in duplicate.
Dharmacon SMARTpool siRNA targeting Trpv2, Gapdh, or a non-coding control were purchased from Thermo Scientific (Lafayette, Colo.) and transfected into DA FLS according to the manufacturer's instructions. Cells were then incubated at 37° C. for 72 hours prior to initiating the invasion assays. Knock-down was confirmed with qPCR and Western blot.

Trpv2 = target: T1, Trpv2 (Rattus norvegicus, UniProt Q9WUD2); experiment: Intracellular calcium influx (Fluo-4 NW) in DA FLS; type: cell-based; parameters: endogenous in cells; host or cells: fibroblast-like synoviocytes (FLS) from DA rats; settings: for Intracellular calcium influx vs untreated and vehicle: increasing concentrations, two DA FLS cell lines
T1 sequence (Q9WUD2 1-761): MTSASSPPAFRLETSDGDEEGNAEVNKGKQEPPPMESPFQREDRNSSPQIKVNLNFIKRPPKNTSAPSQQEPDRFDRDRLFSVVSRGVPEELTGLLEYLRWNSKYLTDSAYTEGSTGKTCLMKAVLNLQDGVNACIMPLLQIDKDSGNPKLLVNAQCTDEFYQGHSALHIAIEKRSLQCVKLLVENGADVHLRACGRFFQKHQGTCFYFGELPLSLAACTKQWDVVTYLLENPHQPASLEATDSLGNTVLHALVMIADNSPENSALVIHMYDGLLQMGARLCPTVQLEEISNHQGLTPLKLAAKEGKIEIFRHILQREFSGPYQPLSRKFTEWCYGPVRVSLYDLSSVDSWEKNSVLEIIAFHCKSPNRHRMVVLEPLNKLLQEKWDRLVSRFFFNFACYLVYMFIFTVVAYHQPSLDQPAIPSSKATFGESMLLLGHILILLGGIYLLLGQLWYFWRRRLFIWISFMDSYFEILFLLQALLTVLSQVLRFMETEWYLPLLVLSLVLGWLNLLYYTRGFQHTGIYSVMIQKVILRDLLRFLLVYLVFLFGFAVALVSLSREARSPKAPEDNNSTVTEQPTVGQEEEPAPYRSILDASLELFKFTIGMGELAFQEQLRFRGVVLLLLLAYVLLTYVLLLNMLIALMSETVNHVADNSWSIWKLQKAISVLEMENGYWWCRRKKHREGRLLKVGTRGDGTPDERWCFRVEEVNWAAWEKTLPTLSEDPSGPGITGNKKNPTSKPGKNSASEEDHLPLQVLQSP
Protocol: Intracellular calcium influx was measured using the Fluo-4 NW calcium assay kit (Molecular Probes/Invitrogen) according to the manufacturer's instructions, as previously described (Laragione et al., “CXCL10 and its Receptor CXCR3 Regulate Synovial Fibroblast Invasion in Rheumatoid Arthritis,” Arthritis Rheum. 63 (11):3274-3283 (2011), which is hereby incorporated by reference in its entirety). Briefly, DA FLS were plated at a density of 4,500 cells/well in a 96-well plate (100 μl volume of complete media per well). After cell adhesion the media was changed to serum-free media for overnight culture. Serum-free media was then replaced with 50 μl of dye loading solution, followed by incubation at 37° C. for 30 minutes and a baseline fluorimetric reading. Then, O1821, LER13, or vehicle were added to their respective wells at different concentrations and fluorescence read immediately in a Fluoroskan Ascent Microplate Fluorometer (Thermo Scientific) with settings appropriate for excitation at 494 nm and emission at 516 nm.

FLS from RA patients = experiment: Matrigel transwell invasion assay, RA FLS; type: cell-based, human
Text: Human synovial tissues were obtained from RA patients undergoing elective orthopedic surgery. All patients met the American College of Rheumatology criteria for RA (Arnett et al, “The American Rheumatism Association 1987 Revised Criteria for the Classification of Rheumatoid Arthritis,” Arthritis Rheum. 31 (3):315-324 (1988), which is hereby incorporated by reference in its entirety). Informed consent was obtained from all participating subjects under an Institutional Review Board-approved protocol through the Feinstein Institute's Tissue Donation Program.
The in vitro invasiveness of FLS was assayed in a transwell system using Matrigel-coated inserts (BD Biosciences, Franklin Lakes, N.J.), as previously described (Tolboom et al., “Invasiveness of Fibroblast-Like Synoviocytes is an Individual Patient Characteristic Associated with the Rate of Joint Destruction in Patients with Rheumatoid Arthritis,” Arthritis Rheum. 52 (7):1999-2002 (2005); Laragione et al., “The Arthritis Severity Locus Cia5d is a Novel Genetic Regulator of the Invasive Properties of Synovial Fibroblasts,” Arthritis Rheum. 58 (8):2296-2306 (2008), which are hereby incorporated by reference in their entirety). […] The opposite side of the insert was stained with Crystal Violet (Sigma) and the total number of cells that invaded through Matrigel counted at 100× magnification. […]

SMILES | Reduction in invasion vs control vehicle ([1]; listed as LER13) | Suppression of FLS invasion ([2]; 10 μM, non-transfected, siRNA control and siRNA GAPDH DA FLS, listed as LER13) | Suppression of FLS invasion after Trpv2 siRNA knock-down ([2]; siRNA Trpv2 transfected FLS, listed as LER13) | Calcium influx higher compared with O1821 (Trpv2; DA FLS) [%] | Intracellular calcium influx vs untreated and vehicle (Trpv2) | Calcium influx (Trpv2; measured over 200 seconds, compared with O1821) | Reduction of RA FLS invasion (FLS from RA patients; 20 μM) [%] | Reduction of RA FLS invasion (FLS from RA patients; 50 μM) [%] | Reduction in invasion vs control vehicle [1] [%] | Reduction of FLS invasion ([2]; 1 μM) [%] | Reduction of FLS invasion ([2]; 10 μM) [%]
C#Cc1cc(O)c(C2C=C(C)CCC2C(=C)C)c(O)c1C1C=C(C)CCC1C(=C)C [Compound 13, (1R,2″R,2R,2″S)-6′-ethynyl-5,5″-dimethyl-2,2″-di(prop-1-en-2-yl)-1,1″,2,2″,3,3″,4,4″-octahydro-[1,1′:3′,1″-terphenyl]-2′,4′-diol] | 65% and 75% | 65% and 60% | non-responsive; also recorded: not responsive or suppressed | ~30 | significantly increased intracellular calcium influx | increased (30% greater than O1821) | – | – | – | – | –
C=C(C)[C@@H]1CCC(C)=C[C@H]1c1c(O)cc(C)cc1O [Compound O1821] | – | – | – | – | significant dose-dependent increase; also recorded: significantly increased intracellular calcium influx | – | 90 | 99.4 | 65 | 80 | 99.4
